According to patent US8163907B2, “Dihydropyridine calcium antagonist compounds, preparation methods, and medical uses thereof” (Cosunter Pharmaceutical Company, priority 2008, dated 2012):
Structures can show the parent of a compound that is named as a salt.

System: isolated rat's thoracic aorta ring
Assay: Contraction of an isolated rat's thoracic aorta ring caused by KCl (vascular relaxation)
Format: cell-based
Settings: 80 mmol/L KCl, n=6; for IC50: isolated rat thoracic aorta ring with complete endodermis, read-out: IC50, inhibition of contraction of a vascular ring with complete endodermis caused by KCl
Text: The effect of compounds of the present invention to the contraction of an isolated rat's thoracic aorta ring caused by KCl is described as follows:
The present invention synthesizes 21 new DHP compounds, and some of the compounds are selected for performing pharmacological tests. With reference to Comparison of vasodilatation effect between quercetin and rutin in the isolated rat thoracic aorta authored by ZHOU Xin-mei, YAO Hui, XIA Man-li, et al, and published in Journal of Zhejiang University: Medical Sciences, 2006, 35(1), 29-33 for an embodiment.
A male SD rat, 240-260 g, supplied by Institute of Laboratory Animal Breeding and Reproduction, Qing Long Shan of Jiang Ning. Certificate of Quality No.: SCXK (So) 2002-0018.
NaCl:118.3 mmol/L, KCl:4.7 mmol/L, CaCl2: 2.5 mmol/L, MgSO4.7H2O:1.2 mmol/L, KH2PO4:1.2 mmol/L, NaHCO3:25 mmol/L, and glucose:11.1 mmol/L.
Hit a male rat at its head until it faints. Quickly remove the thoracic aorta, and put it into a K-H solution passed with a mixed gas having 95% O2+5% CO2. Carefully remove connective tissues around the thoracic aorta and cut the blood vessel into a vascular ring of 3 mm wide. Avoid any excessive pulling to prevent damages to the endodermis. Hang the vascular ring into a bathing trough containing 30 ml of K-H liquid, and keep passing the mixed gas of 95% O2+5% CO2, and maintain the temperature at 37±0.5[…]. Adjust the rest tension to 2.0 g. Keep it in equilibrium for 2 hrs, and change the liquid once every 15 min.
Inspection of the activity of the endodermis of the blood vessel: After the thoracic aorta ring is stable, change the liquid once, and add 1 μmol/L of NA into the bathing trough. After the contraction has reached the peak value for 15 min., add 1 μmol/L of Ach. If the expected contraction of the vascular relaxation is greater than 60% after Ach is added, then the endodermis is considered to be complete, or else the endodermis will be damaged.
A thoracic aorta ring with a complete endodermis is selected for conducting the experiment. After the changed liquid is stable, Add 80 mmol/L KCl to induce the maximum contraction amplitude, sequentially accumulate the medications, such that the medicine concentrations are 0.05 μmol/L, 0.1 μmol/L, 0.5 μmol/L, 1 μmol/L, 2 μmol/L, 4 μmol/L, and 10 μmol/L respectively. Record the change of tensions. The vascular relaxation level is indicated by the inhibition rate. In other words, KCl induces a difference of values between the maximum tension of the contraction and the vascular tension after medicines with different concentrations are added. The ratio of differences of the values to the maximum contraction amplitude induced by KCl reflects the level of vascular relaxation. The sample size of the arota rings for each medicine group is 6. In other words, the experiment is performed repeatedly for 6 times.

[1] = Rattus norvegicus, 0.1 μmol/L, x±S, read-out: Inhibition Rate (%)
[2] = Rattus norvegicus, 0.5 μmol/L, x±S, read-out: Inhibition Rate (%)
[3] = Rattus norvegicus, 1 μmol/L, x±S, read-out: Inhibition Rate (%)
[4] = Rattus norvegicus, 2 μmol/L, x±S, read-out: Inhibition Rate (%)
[5] = Rattus norvegicus, 4 μmol/L, x±S, read-out: Inhibition Rate (%)

| Molecule | IC50 [nM] | inhibition at 0.1 µM [1] [%] | inhibition at 0.5 µM [2] [%] | inhibition at 1 µM [3] [%] | inhibition at 2 µM [4] [%] | inhibition at 4 µM [5] [%] | inhibition at 10 µM (Rattus norvegicus, 10 μmol/L, x±S, read-out: Inhibition Rate (%)) [%] | Inhibition Rate (%) (0.1 μmol/L, x±S) | Inhibition Rate (%) (0.5 μmol/L, x±S) | Inhibition Rate (%) (1 μmol/L, x±S) | Inhibition Rate (%) (2 μmol/L, x±S) | Inhibition Rate (%) (4 μmol/L, x±S) | Inhibition Rate (%) (10 μmol/L, x±S) | inhibition at 0.05 µM (Rattus norvegicus, 0.05 μmol/L, x±S, read-out: Inhibition Rate (%)) [%] |
| --- | --- | --- | --- | --- | --- | --- | --- | --- | --- | --- | --- | --- | --- | --- |
| COC(=O)C1=C(C)NC(C)=C(C(=O)OCCCN2CCN(CCOc3ccccc3OC)CC2)C1c1cccc([N+](=O)[O-])c1 (stereo not drawn) [Compound I4, 1,4-dihydro-2,6-dimethyl-4-(3-nitrophenyl)-3,5-pyridinecarboxylic acid methyl ester 3-(N-4-(2-(2-methoxyphenoxy)ethyl)piperazinyl)propyl ester hydrochloride] | 2000 | 13.2 ± 1.3 | 20.5 ± 2.2 | 33.8 ± 2.8 | 59.4 ± 4 | 62.4 ± 4.8 | 72 ± 4.7 | – | – | – | – | – | – | – |
| COC(=O)C1=C(C)NC(C)=C(C(=O)OCCCCN2CCN(CCOc3ccccc3OC)CC2)C1c1cccc([N+](=O)[O-])c1.Cl (stereo not drawn) [Compound I5, 1,4-dihydro-2,6-dimethyl-4-(3-nitrophenyl)-3,5-pyridinecarboxylic acid methyl ester-4-(N-4-(2-(2-methoxyphenoxy)ethyl)piperazinyl)butyl ester hydrochloride] | 500 | – | – | – | – | – | – | 24.5 ± 3.2 | 47.9 ± 3.9 | 66.0 ± 4.0 | 75.0 ± 3.5 | 91.6 ± 3.2 | 100.1 ± 3.0 | – |
| Levamlodipine Besylate [reference compound] | 4100 | – | – | – | – | – | – | 4.5 ± 0.6 | 18.4 ± 2.6 | 37.7 ± 3.6 | 46.8 ± 4.1 | 69.0 ± 5.9 | 84.6 ± 6.1 | – |

More lines, main results first:

| IC50 [nM] | Molecule | inhibition at 0.1 µM [1] [%] | inhibition at 0.5 µM [2] [%] | inhibition at 1 µM [3] [%] | inhibition at 2 µM [4] [%] | inhibition at 4 µM [5] [%] | inhibition at 10 µM (Rattus norvegicus, 10 μmol/L, x±S, read-out: Inhibition Rate (%)) [%] | Inhibition Rate (%) (0.1 μmol/L, x±S) | Inhibition Rate (%) (0.5 μmol/L, x±S) | Inhibition Rate (%) (1 μmol/L, x±S) | Inhibition Rate (%) (2 μmol/L, x±S) | Inhibition Rate (%) (4 μmol/L, x±S) | Inhibition Rate (%) (10 μmol/L, x±S) | inhibition at 0.05 µM (Rattus norvegicus, 0.05 μmol/L, x±S, read-out: Inhibition Rate (%)) [%] |
| --- | --- | --- | --- | --- | --- | --- | --- | --- | --- | --- | --- | --- | --- | --- |
| 1900 | COC(=O)C1=C(C)NC(C)=C(C(=O)OCCN2CCN(CCOC(c3ccccc3)c3ccccc3)CC2)C1c1cccc([N+](=O)[O-])c1.Cl (stereo not drawn) [Compound I6, 1,4-dihydro-2,6-dimethyl-4-(3-nitrophenyl)-3,5-pyridinecarboxylic acid methyl ester2-(N-4-(diphenylmethoxyethyl)piperazinyl)ethyl ester hydrochloride] | – | – | – | – | – | – | 9.3 ± 1.0 | 20.5 ± 2.5 | 33.7 ± 2.4 | 49.7 ± 3.5 | 66.9 ± 3.6 | 79.0 ± 4.5 | – |
| 200 | COC(=O)C1=C(C)NC(C)=C(C(=O)OCCN2CCN(CCOc3ccccc3OC)CC2)C1c1cccc([N+](=O)[O-])c1 (stereo not drawn) [Compound I14, 1,4-dihydro-2,6-dimethyl-4-(3-nitrophenyl)-3,5-pyridinecarboxylic acid methyl ester2-(N-4-(2-(2-methoxyphenoxy)ethyl)piperazinyl)ethyl ester hydrochloride] | 35.7 ± 3 | 62.9 ± 6.8 | 81.7 ± 3.3 | 96.2 ± 4.5 | 101 ± 3.4 | – | – | – | – | – | – | – | 27.4 ± 3.4 |
| 800 | COC(=O)C1=C(C)NC(C)=C(C(=O)OCCCN2CCN(CC(O)COc3ccccc3OC)CC2)C1c1cccc([N+](=O)[O-])c1.Cl (stereo not drawn) [II2, 1,4-dihydro-2,6-dimethyl-4-(3-nitrophenyl)-3,5-pyridinecarboxylic acid methyl ester3-(N-4-(3-(2-methoxyphenoxy)-2-hydroxpropyl)piperazinyl)propyl ester hydrochloride] | – | – | – | – | – | – | 11.0 ± 1.5 | 32.2 ± 3.0 | 50.7 ± 5.7 | 65.2 ± 4.2 | 93.4 ± 3.1 | 101.2 ± 3.2 | – |
